Source: patent US20090042904A1 (LABORATORIOS DEL DR. ESTEVE S.A., priority 2004, published 2009)
pKi: −log10 of the molar value.

These compounds were tested against T1, 5HT6-human recombinant receptor (Homo sapiens, UniProt P50406) (assay: Binding to serotonin receptor 5-HT6 ([3H]-LSD displacement)). Conditions: membranes of HEK-293 cells expressing the receptor; radioligand [3H]-LSD 2.7 nM; 60 minutes at 37° C.
T1 construct: purchased Receptor Biology; host or cells: HEK-293 cells (membranes)
Method: I) Binding to Serotonin Receptor 5-HT6
Cell membranes of HEK-293 cells expressing the 5HT6-human recombinant receptor were supplied by Receptor Biology. In said membranes the receptor concentration is 2.18 pmol/mg protein and the protein concentration is 9.17 mg/ml. The experimental protocol follows the method of B. L. Roth et al. [B. L. Roth, S. C. Craigo, M. S. Choudhary, A. Uluer, F. J. Monsma, Y. Shen, H. Y. Meltzer, D. R. Sibley: Binding of Typical and Atypical Antipsychotic Agents to 5-Hydroxytryptamine-6 and Hydroxytryptamine-7 Receptors. The Journal of Pharmacology and Experimental Therapeutics, 1994, 268, 1403] with the following slight changes. The respective part of the literature description is hereby incorporated by reference and forms part of the disclosure.
The commercial membrane is diluted (1:40 dilution) with the binding buffer: 50 mM Tris-HCl, 10 mM MgCl2,0.5 mM EDTA (pH 7.4). The radioligand used is [^3H]-LSD at a concentration of 2.7 nM with a final volume of 200 μl. Incubation is initiated by adding 100 μl of membrane suspension, (≈22.9 μg membrane protein), and is prolonged for 60 minutes at a temperature of 37° C. The incubation is ended by fast filtration in a Brandel Cell Harvester through fiber glass filters made by Schleicher & Schuell GF 3362 pretreated with a solution of polyethylenimine at 0.5%. The filters are washed three times with three milliliters of buffer Tris-HCl 50 mM pH 7.4. The filters are transferred to flasks and 5 ml of Ecoscint H liquid scintillation cocktail are added to each flask. The flasks are allowed to reach equilibrium for several hours before counting with a Wallac Winspectral 1414 scintillation counter. Non-specific binding is determined in the presence of 100 μM of serotonin. Tests were made in triplicate. The inhibition constants (Ki, nM) were calculated by non-linear regression analysis using the program EBDA/LIGAND described in Munson and Rodbard, Analytical Biochemistry, 1980, 107, 220, the respective part of which is hereby incorporated by reference and forms part of the disclosure.
The binding of the substituted phenyl-piperazine compounds to the 5-HT6 receptor was determined as described above.

T1 sequence (P50406 whole entry): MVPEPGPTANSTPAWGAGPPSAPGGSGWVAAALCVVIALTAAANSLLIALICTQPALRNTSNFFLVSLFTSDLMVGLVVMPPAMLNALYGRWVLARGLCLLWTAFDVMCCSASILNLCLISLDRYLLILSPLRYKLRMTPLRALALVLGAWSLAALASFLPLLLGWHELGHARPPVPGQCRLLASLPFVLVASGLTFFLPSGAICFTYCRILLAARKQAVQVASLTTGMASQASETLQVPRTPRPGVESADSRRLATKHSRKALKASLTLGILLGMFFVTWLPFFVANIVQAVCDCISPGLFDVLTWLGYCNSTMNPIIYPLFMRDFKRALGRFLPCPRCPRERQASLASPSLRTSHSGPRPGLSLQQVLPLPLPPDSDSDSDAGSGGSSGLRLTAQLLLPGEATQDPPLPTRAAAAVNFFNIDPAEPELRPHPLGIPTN

| Structure (SMILES) | pKi |
| --- | --- |
| CN1CCN(c2ccc(NS(=O)(=O)c3ccccc3)c(NCc3ccccc3)c2)CC1 [Example 24, N-[2-Benzylamino-4-(4-methyl-piperazin-1-yl)-phenyl]-benzenesulfonamide] | 7.22 |
| CN1CCN(c2ccc(OCc3ccccc3)c(NCc3ccco3)c2)CC1 [Example 10] | 6.40 |
| COc1ccc(N2CCN(C)CC2)cc1NCc1ccccc1 [Example 11, Benzyl-[2-methoxy-5-(4-methyl-piperazin-1-yl)-phenyl]-amine] | 6.39 |

Further lines, results first:

| pKi | Structure (SMILES) |
| --- | --- |
| 6.97 | CN1CCN(c2ccc(C#N)c(NCc3ccccc3)c2)CC1 [Example 5, 2-Benzylamino-4-(4-methyl-piperazin-1-yl)-benzonitrile] |
| 5.89 | CN1CCN(c2ccc(OCc3ccccc3)c(NCCc3ccccc3)c2)CC1 [Example 9, [2-Benzyloxy-5-(4-methyl-piperazin-1-yl)-phenyl]-phenethyl-amine] |
| 6.79 | CC(=O)N(Cc1ccccc1)c1ccc(N2CCN(C)CC2)cc1N [Example 23, N-[2-Amino-4-(4-methyl-piperazin-1-yl)-phenyl]-N-benzyl-acetamide] |
| 6.34 | COC(=O)c1ccc(N2CCN(C)CC2)cc1NCCc1ccccc1 [Example 6, 4-(4-Methyl-piperazin-1-yl)-2-phenethylamino-benzoic acid methyl ester] |
